Test results: patent publication US6960300B2, “Process for preparing water soluble diterpenes and their applications” (Sami Labs Limited, priority 2003, dated 2005)
In brackets after ≈: the same amount, converted by molar mass.

How the values were obtained:
[1] = system: Intraocular pressure (IOP), ocular hypertension; experiment: Anti-glaucoma activity: intraocular pressure (IOP) in rabbits with betamethasone-induced ocular hypertension, non-contact tonometer; format: in vivo, Albino rabbit (New Zealand strain); details: for IOP Readings, right eye (treated): average of 6 determinations
From the text: An illustrative example of the biological activity of the preparation is presented. The anti-glaucoma activity of the forskolin composition was studied in albino rabbits. A 1% solution of Forskolin in water as described in example 8 was used for the experiments
Study design: Animal model: Albino rabbit Number of groups: 4 Number of animals in each group: 6 in treatment group and 2 in control group
Materials and methods: Six albino rabbits of New Zealand strain, of both sexes, weighing […] were chosen. The rabbits were housed in clean and well-ventilated open space. Each rabbit was fed with standard diet daily and water was administered ad libitum throughout the study.
Ocular hypertension was induced by the method reported by Bonomi et al (Invest Ophthalmol. 1976 September; 15(9):781-4.) The rabbits were given 0.3 ml subconjunctival injection of Betnesol containing betamethasone sodium 4 mg/ml, every day to each eye for a period of three weeks (the Intraocular pressure (IOP) at third week was maximum as per literature). Local anesthetic propracaine eye drops were used prior to subconjunctival injections.
In each rabbit the left eye was kept as control for glaucoma and the right eye was treated for glaucoma using Forskolin, Timolol, and the placebo.
For each treatment, the IOP readings were measured at intervals of 30 minutes up to 210 minutes using the non-contact tonometer (NCT).

[2] = 25° C.; cited from earlier work
[3] = Solubility of Forskolin / Isoforskolin in water containing cyclodextrin (HPLC of filtered solution); format: physicochemical
Procedure: To solubilize Forskolin using cyclodextrins, the chosen cyclodextrin and Forskolin are mixed in water in specific proportions. The aqueous solution is filtered to remove any undissoved particles to obtain a clear aqueous solution of Forskolin in water.
Forskolin (98.5% assay, 25 mg) was added to 1 ml water containing in the dissolved state 500 mg Hydroxy propyl β cyclodextrin, HPBCD, (˜50%) Suspension was agitated at 75 RPM in an isothermal shaker for 60 hours at temperature ˜30° C.
Forskolin (98.5% assay, 50 mg) was added to 1 ml water containing 500 mg Hydroxy propyl γ-cyclodextrin in the dissolved state. (HPGCD) (˜50%). Suspension was agitated at 75 RPM in an isothermal shaker for 60 hours at temperature ˜30° C.
Experiments were performed by “changing” the crystallinity of Forskolin by recrystallizing from methylene chloride and from ethyl acetate. Resulting “amorphous” Forskolin was used for complexation with Hydroxyropyl γ-cyclodextrin HPGCD. Forskolin (29.3 mg) recrystallized with methylene dichloride (Forskolin assay 99.0%) was added to 3 ml water containing 1.5 gram Hydroxy propyl γ-cyclodextrin, HPGCD (˜50%). Suspension was agitated at 75 RPM in an isothermal shaker for 160 hour at temperature 30° C.
Forskolin (30.3 mg) recrystallized with ethyl acetate (Forskolin assay 98.8%) was added to 3 ml water containing 1.5 gram Hydroxy propyl γ-cyclodextrin, HPGCD (˜50%). Suspension was agitated at 75 RPM in an isothermal shaker for 160 hour at temperature 30° C.
Forskolin (98.5% assay, 330 mg) was added to 10 ml water containing 4 g of RAMEBCD (˜40%). Suspension was agitated at 75 RPM in an isothermal shaker for 40 hours at temperature 30° C.
Solubility of Forskolin in water was determined at the different concentrations of RAMEBCD ranging from 5 to 66%.
A typical aqueous formulation of Forskolin with a cyclodextrin is prepared as follows, RAMEBCD, being used as the example of cyclodextrin RAMEBCD (100 g) is taken in a one liter flask with mechanical or magnetic stirring facility. Forskolin (5.5 g) was charged into the flask. Water (400 ml) is charged to the flask and the contents were agitated at room temperature. A clear solution is obtained. If any undissolved Forskolin particles are seen, they are resuspended and stirred. Benzalkonium chloride (50 mg) and Disodium EDTA (500 mg) are added and dissolved in the flask. The pH of the contents could be adjusted to the desired range with the help of 0.1N sodium hydroxide. (usually pH range 3.5 to 7.5). Calculated amount of sodium chloride solution is added to maintain the osmolarity of the solution equivalent to that of 0.9% sodium chloride. The total volume of the solution is made up to 500 ml after sterile filtration. A solution thus prepared has approximately 1% of Forskolin in the dissolved state. Other cyclodextrins also could be used and depending on the cyclodextrin used, the dissolved content of Forskolin in water differed.
Isoforskolin also could be used in place of Forskolin. In one preparation, Isoforskolin (50 mg) was suspended in water containing a suitable amount of a cyclodextrin, for example, R AMEBCD (20 g) in about 100 ml water.

[4] = polyvinylpyrrolidone and polyethyleneglycol-glyceryl tririicinoleate, U.S. Pat. No. 6,346,273; cited from earlier work
[5] = Determination of the aqueous solubility of Forskolin (intrinsic solubility, HPLC); format: physicochemical
Procedure: Determination of the aqueous solubility of Forskolin. Forskolin (300 mg) was dried at 105° C. for 6 hours. Dried Forskolin 200 mg was stirred with 100 ml water for 48 hours for the determination of intrinsic solubility at ambient temperatureResulting solution was filtered through 0.45 μm nylon filter and analyzed for the content of Forskolin by HPLC.

[6] = Dissolution in water of Forskolin-RAMEBCD residue obtained by evaporating acetone; format: physicochemical; details: Forskolin 50 mg + RAMEBCD 1 gram from acetone, residue in 5 ml water
Procedure: Alternatively, the cyclodextrin and Forskolin in certain proportions are dissolved in a suitable solvent such as ethanol or acetone or ethyl acetate. The solvent is removed to leave behind a white powder. Such powder freely dissolves in water as the examples will illustrate. Further, additives to the aqueous solution of Forskolin can also be added. These additives are usually used for maintaining sterility, pH maintenance, maintenance of osmolarity etc.
Forskolin (50 mg) was dissolved in 5 ml acetone, and 1 gram of RAMEBCD was dissolved in 5 ml acetone separately. Both the solutions were mixed together and solvent acetone was evaporated under reduced pressure. Residue was dried and dissolved in 5 ml water. This residue dissolved very easily within 1 hour of stirring forming a clear colorless solution.

Row | SMILES | IOP Readings, right eye (treated) ([1]; time 0 mins) | IOP Readings, right eye (treated) ([1]; time 30 mins) | IOP Readings, right eye (treated) ([1]; time 60 mins) | IOP Readings, right eye (treated) ([1]; time 90 mins) | IOP Readings, right eye (treated) ([1]; time 120 mins) | IOP Readings, right eye (treated) ([1]; time 150 mins) | IOP Readings, right eye (treated) ([1]; time 180 mins) | IOP Readings, right eye (treated) ([1]; time 210 mins) | other results
1 | CC(C)(C)NC[C@H](O)COc1nsnc1N1CCOCC1 [Timolol] | 13 mmHg | 8 mmHg | 7 mmHg | 5 mmHg | 4 mmHg | 3.5 mmHg | 4.5 mmHg | 6 mmHg | –
2 | OC[C@H]1O[C@@H]2O[C@H]3[C@H](O)[C@@H](O)[C@@H](O[C@H]4[C@H](O)[C@@H](O)[C@@H](O[C@H]5[C@H](O)[C@@H](O)[C@@H](O[C@H]6[C@H](O)[C@@H](O)[C@@H](O[C@H]7[C@H](O)[C@@H](O)[C@@H](O[C@H]8[C@H](O)[C@@H](O)[C@@H](O[C@H]9[C@H](O)[C@@H](O)[C@@H](O[C@H]%10[C@H](O)[C@@H](O)[C@@H](O[C@H]1[C@H](O)[C@H]2O)O[C@@H]%10CO)O[C@@H]9CO)O[C@@H]8CO)O[C@@H]7CO)O[C@@H]6CO)O[C@@H]5CO)O[C@@H]4CO)O[C@@H]3CO [δ-cyclodextrin] | – | – | – | – | – | – | – | – | Water solubility [2]: 8.19 g/100 ml
3 | C=C[C@@]1(C)CC(=O)[C@@]2(O)[C@](C)(O1)[C@@H](O)[C@@H](OC(C)=O)C1C(C)(C)CC[C@H](O)[C@@]12C (some centres unmarked) [Isoforskolin] | – | – | – | – | – | – | – | – | Isoforskolin present in filtered solution by HPLC ([3]; RAMEBCD (20 g) in about 100 ml water, room temperature): approximately 0.5%
4 | C=C[C@@]1(C)CC(=O)[C@]2(O)[C@@]3(C)[C@@H](O)CCC(C)(C)[C@@H]3[C@H](O)[C@H](OC(C)=O)[C@@]2(C)O1 [Forskolin] | 14 mmHg | 7 mmHg | 6.5 mmHg | 4.5 mmHg | 5 mmHg | 6 mmHg | 7 mmHg | 7.5 mmHg | Maximum solubility of Forskolin achieved [4]: 0.2%; Anti-glaucoma activity (conclusion) ([1]; 1% solution of Forskolin in water as in example 8): anti-glaucoma activity comparable to Timolol; Concentration of Forskolin solution in water in the absence of cyclodextrin ([5]; no cyclodextrin): about 0.001%; Content of Forskolin by HPLC (intrinsic solubility in water) ([5]; stirred 48 hours, ambient temperature, 0.45 μm filtered): 0.001 % w/v; solubility at 48 h ([5]; thermodynamic from solid, water, stirred 48 hours, ambient temperature, 0.45 μm filtered, read-out: Content of Forskolin by HPLC (intrinsic solubility in water)): 10 µg/mL (≈ 24.4 µM); % Forskolin w/v (solubility in water) ([3]; 5% RAMEBCD): 0.09 % w/v; % Forskolin w/v (solubility in water) ([3]; 10% RAMEBCD): 0.272 % w/v; % Forskolin w/v (solubility in water) ([3]; 15% RAMEBCD): 0.767 % w/v; % Forskolin w/v (solubility in water) ([3]; 20% RAMEBCD): 1.15 % w/v; % Forskolin w/v (solubility in water) ([3]; 40% RAMEBCD): 2.746 % w/v; % Forskolin w/v (solubility in water) ([3]; 53.28% RAMEBCD): 4.165 % w/v; % Forskolin w/v (solubility in water) ([3]; 66.6% RAMEBCD): 5.029 % w/v; Forskolin in the dissolved state in the aqueous formulation ([3]; Example 8 formulation: RAMEBCD 100 g, Forskolin 5.5 g, made up to 500 ml, room temperature): approximately 1%; Time of stirring for the residue to dissolve in water forming a clear colorless solution [6]: ≤ 1 h
